# What was measured:
# recurring migraine = experiment: Dorsonasal ropivacaine therapy in recurring migraine: frequency and severity of subsequent episodes (Example 3); type: in vivo, human
# Source text: The following studies relate to the methods of decreasing the frequency and severity of CNvD episodes described herein, and involved three patients.
# A patient, herein designated “patient 3-1” was afflicted with recurring severe migraine, wherein acute migraine episodes were associated with nausea and visual changes. Patient 3-1 generally rated the severity of head pain associated with acute migraine episodes in the range from five to eight using the pain scale described herein. Patient 3-1 experienced, on average, about one acute migraine episode per week prior to beginning dorsonasal ropivacaine therapy. In addition, patient 3-1 also usually experienced about one severe acute migraine episode per month, associated with menses, wherein the severity of head pain was from eight to ten using the pain scale described herein.
# Ropivacaine was dorsonasally administered to patient 3-1 using the cotton swab technique described herein. The patient has consistently experienced relief from all of the symptoms of their CNvD episodes within 3 to 5 minutes following administration of ropivacaine, regardless of whether the episodes are associated with menses.
# A person, herein designated, “patient 3-2,” was afflicted with recurring migraines. […] Head pain associated with the patient's acute migraine episodes is typically preceded by visual changes which they describe as a curtain-like wave of scotomata moving from left to right until they are unable to see. The patient then becomes disoriented with respect to time and place and must sit or lay down. Following these prodromal symptoms, a severe headache, rated 10 on the pain scale described herein, begins and typically endures for 45 to 60 minutes. The patient remains completely debilitated for the duration of the headache, unable to move about or walk. As the headache subsides, the patient's vision returns, and the patient is left feeling exhausted, as if they had not slept the night before.
# A person, herein designated, “patient 3-3,” experienced about 3 to 5 recurring migraine episodes per week prior to beginning dorsonasal ropivacaine therapy. The initial severity of these headaches was reported to be 10, using the pain scale described herein. When ropivacaine was administered, using the saturated swab method described herein, to patient 3-3 during a headache episode, the patient reported a decrease in head pain from a rating of 10 to a rating of 0 or 1 within 10 minutes following ropivacaine administration. Furthermore, after three months of dorsonasal ropivacaine treatment, patient 3-3 reported that the frequency of their headache episodes had decreased to about 1 to 2 times weekly and that the initial severity of their headaches was in the range from about 7 to about 8, rather than 10.
# tinnitus = experiment: Inhibition of tinnitus by dorsonasal administration of ropivacaine (Example 4); type: in vivo, human
# Source text: Ropivacaine was dorsonasally administered to each of three patients using the nasal spray method or the nasal drops method described herein.
# [1] = cited from earlier work
# [2] = in vivo; cited from earlier work
# [3] = patient 3-1, about three or four months after initiation
# [4] = patient 4-3, 1 milliliter 0.75% (w/v) per nostril, nasal drop
structure (smiles),measurement,setting,value
"CCCN1CCCC[C@H]1C(=O)Nc1c(C)cccc1C [Ropivacaine, ropivacaine]",Frequency of subsequent acute migraine episodes,recurring migraine; [3],decrease in the frequency with which acute migraine episodes not associated with menses occurred
same,Initial severity of subsequent acute migraine episodes,recurring migraine; [3],decrease in the initial severity of acute migraine episodes not associated with menses
same,Frequency of headaches after therapy,"recurring migraine; patient 3-2, after four to six months of therapy",approximately one headache every two months or longer
same,Initial headache pain (prior to administration) after therapy,"recurring migraine; patient 3-2, after four to six months of therapy, previously about 10",≤ 2
same,Time to complete resolution of headache,"recurring migraine; patient 3-2, nasal spray",completely resolved by fifteen minutes
same,Headache pain intensity after administration,"recurring migraine; patient 3-2, nasal spray, from 10, within one to two minutes, pain scale 0-10",2-3
same,Time to relief of head pain and tinnitus symptoms,"tinnitus; patient 4-1, dorsonasal spray",within about five minutes
same,Decrease in head pain,"tinnitus; patient 4-2, dorsonasal spray, non-neurovascular chronic head pain",about 2 points
same,"Reduction in tinnitus symptoms, right ear",tinnitus; [4],50-75%
same,"Tinnitus symptoms, left ear",tinnitus; [4],complete relief
same,"Inhibition of tinnitus, patients","tinnitus; three patients, nasal spray or nasal drops",All three patients experienced inhibition of tinnitus
same,Proportion bound to protein in vivo,[1],Approximately 95%
same,Cardiotoxicity,[2],this side effect is not exhibited
same,Cardiovascular and central nervous system toxicity,[2],lower cardiovascular and central nervous system toxicity than bupivacaine

# Source: patent publication US9381349B2, “Apparatus for treating cerebral neurovascular disorders including headaches by neural stimulation” (priority 1997, dated 2016)
